This note sets out measurements from patent US20250032460A1, “METHODS OF TREATING NEUROLOGICAL DISORDERS” (MapLight Therapeutics, Inc., priority 2021, published 2025).

In data set [1] the test system is MPTP-Induced Dyskinesia. In words: L-dopa-induced dyskinesia in MPTP-lesioned macaques. The data set is classed as in vivo, cynomolgus macaques. The text has this: It is now used in non-human primates to model primary parkinsonian motor symptom phenotypes and subsequent response to therapies such as L-dopa including dyskinesia-thus it can be used as foundational model for LID. See Huat 2012. (Huot P, Johnston T H, Koprich J B, Fox S H, Brotchie J M. L-DOPA pharmacokinetics in the MPTP-lesioned macaque model of Parkinson's disease. Neuropharmacology. 2012 October; 63(5):829-36.) Having both face validity and construct validity, the MPTP non-human primate model is considered the animal model of PD motor symptoms with the highest translational relevance.
A study was conducted in seven female MPTP-lesioned cynomolgus macaques that received chronic repeat treatment with L-dopa and in response manifested stable and reproducible dyskinesia that was choreic and dystonic in nature. Macaque behaviors were assessed following a single 1 mg/kg dose of Compound 1 or vehicle in combination with high-dose of L-dopa delivered as Madopar™ with a dose titrated for LID symptoms in each test animal. The ‘on time’ therapeutic effects and abnormal LID movements were assessed for 6 hours following administration of L-dopa. A single Compound 1 oral dose of 1 mg/kg or vehicle was administered at the same time as L-dopa at the start of behavioral observations. All animals received all treatments in a cross-over design with a minimum of 72 hours between repeat treatments in each animal. The therapeutic and LID behaviors were scored by trained raters supervised by a neurologist in a blinded fashion using high-definition video recordings and the non-human primate dyskinesia rating scale. See Fox 2012. (Fox S H, Johnston T H, Li Q, Brotchie J, Bezard E. A critique of available scales and presentation of the Non-Human Primate Dyskinesia Rating Scale. Mov Disord. 2012 Sep. 15; 27(11):1373-8.)

A short description of data set [2]: Single ascending dose study: pharmacokinetics (plasma, CSF). It counts as in vivo. How it is done: Compound 1 was administered in a single ascending dose (SAD) study conducted in approximately 54 healthy adult volunteers to investigate Compound 1 pharmacokinetics, safety, and tolerability. The study was conducted in two groups.
Group 2 evaluated tolerability of Compound 1 at Group 1 MTD with or without fesoterodine fumarate co-administration. Subjects received 8 mg of fesoterodine fumarate tablet or matched placebo tablet 4 hours prior to administration of 40 mg of Compound 1.

Setting [3] is: Compound 1 1 mg/kg PO with high-dose L-dopa, vs vehicle.
The mark [4] stands for this setting: Group 2, 40 mg Compound 1, 8 mg fesoterodine fumarate.

As to `Cc1noc([C@@]23CNC[C@@H]2C3)n1` [Compound 1, 1-(3-methyl-[1,2,4]oxadiazol-5-yl)-(1R,5R)-3-aza-bicyclo[3.1.0]hexane], the “anti-parkinsonian benefit of L-DOPA and overall duration of on-time” value in data set [1] (Compound 1 1 mg/kg PO with high-dose L-dopa) is on record as “no reduction”. For the same compound, in data set [1] (setting [3]), the “decrease in the duration of ‘bad’ on-time (on-time associated with disabling dyskinesia)” value is 41% and the “increase in the duration of ‘good’ on-time (lack of, or only non-disabling dyskinesia)” value was 143%. Further, in data set [1] (Compound 1 1 mg/kg PO with high-dose L-dopa, vs vehicle, P<0.001), the “reduction of median levels of dyskinesia during the 0-1 h period” value was 91%. Further, the “reduction of median levels of dyskinesia cumulated over the 0-2 h period” value in data set [1] (Compound 1 1 mg/kg PO with high-dose L-dopa, vs vehicle, P=0.0156) came to 42%. Moreover, the “median levels of dyskinesia during the 0-1 h period” value in data set [1] (Compound 1 1 mg/kg PO with high-dose L-dopa, vehicle 11) is reported as 1. In addition, in data set [1] (Compound 1 1 mg/kg PO with high-dose L-dopa, vehicle 33), the “median levels of dyskinesia cumulated over the 0-2 h period” value was 19. In data set [1] (Compound 1 1 mg/kg PO, seven animals in final analyses), the “animals with a robust reduction in LID” value is on record as “six of the seven animals”. Also, in data set [2] (setting [4]), the “increase in exposure of Compound 1 following co-administration of fesoterodine fumarate, AUC0-inf” value is on record as 29.0% and the “increase in exposure of Compound 1 following co-administration of fesoterodine fumarate, AUC0-t” value is 30.0%. For the same compound, in data set [2] (Group 2, 40 mg Compound 1, 8 mg fesoterodine fumarate, p-value: 0.0347), the “increase in exposure of Compound 1 following co-administration of fesoterodine fumarate, Cmax” value is given as 50.0%. Further, in data set [2] (human, in vivo, 1 h), the “compound 1 concentration in CSF at 1hour post-dose, mean” value was determined as 50.30 ng/mL and the “mean compound 1 concentration in CSF at 1 hour post-dose” value stood at 56.96 ng/mL. For the same compound, the Tmax in data set [2] (human, in vivo, single oral doses, healthy subjects, read-out: median tmax) was in the range of 39 to 70.2 min.

The Tmax is the time from dosing to the highest level.
